The values below come from ChEMBL document CHEMBL1201862, “PubChem BioAssay data set” (2004).

Counter-ions that a name gives are not always drawn. Active and inactive are the calls of the source. Where only a bound is given, the exact number is not on record here.

The target in assay [1] is DNA dC->dU-editing enzyme APOBEC-3A (Homo sapiens, UniProt P31941). As to the kind of experiment: Dose Response confirmation of small molecule APOBEC3A DNA Deaminase Inhibitors via a fluorescence-based single-stranded DNA deaminase assay. [Related pubchem assays (depositor defined):AID493011, AID493024]. It is filed as functional.
Sequence of DNA dC->dU-editing enzyme APOBEC-3A (P31941 whole entry): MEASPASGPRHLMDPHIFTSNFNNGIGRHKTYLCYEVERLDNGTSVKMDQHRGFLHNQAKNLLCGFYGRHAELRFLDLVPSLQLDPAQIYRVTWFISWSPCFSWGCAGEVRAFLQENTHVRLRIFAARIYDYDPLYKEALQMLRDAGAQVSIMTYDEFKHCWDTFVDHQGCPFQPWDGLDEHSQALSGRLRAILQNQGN
Assay [2] addresses T1, Polyadenylate-binding protein 1 (Homo sapiens, UniProt P11940). As to the kind of experiment: PABP poly(A) RNA binding inhibitors, primary screen, biochemical, fluorescence polarization, uHTS (AID 2014).
For assay [3], the target named is T2, Eukaryotic translation initiation factor 4H (Homo sapiens, UniProt Q15056). As to the kind of experiment: human eIF4H binding inhibitors, primary screen, translation initiation inhibitor project, biochemical, uHTS, fluorescence polarization (AID 2012). Background: In fluorescence polarisation assays a small probe gives low polarisation when free and higher when bound to something large.

Assay [4] has as its target T3, DNA dC->dU-editing enzyme APOBEC-3G (Homo sapiens, UniProt Q9HC16). It is filed as functional.
Assay [5] concerns the target T4, Carboxy-terminal domain RNA polymerase II polypeptide A small phosphatase 1 (Homo sapiens, UniProt Q9GZU7).
T4 sequence (Q9GZU7 whole entry): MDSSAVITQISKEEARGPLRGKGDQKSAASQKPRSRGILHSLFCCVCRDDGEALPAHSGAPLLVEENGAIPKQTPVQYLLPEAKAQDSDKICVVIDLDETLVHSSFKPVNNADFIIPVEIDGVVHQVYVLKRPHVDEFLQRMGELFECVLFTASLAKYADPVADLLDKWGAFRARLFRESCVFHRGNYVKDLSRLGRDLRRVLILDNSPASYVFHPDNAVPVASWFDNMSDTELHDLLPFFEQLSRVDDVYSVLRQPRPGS
As to the kind of experiment: inhibitors of CTDSP1, concentration-response testing, biochemical assay, absorbance-based, actives from ultra-high-throughput screening (AID 540297). It is filed as functional.

Assay [6] concerns the target T5, Voltage-gated N-type calcium channel alpha-1B subunit/Amyloid beta A4 precursor protein-binding family A member 1 (Homo sapiens, UniProt Q00975+Q02410). As to the kind of experiment: disruptors of Mint-PDZ/N-type channel peptide interaction – biochemical, HTRF, SAR follow-up (AID 2489). It is filed as functional. In general terms: TR-FRET usually uses a lanthanide donor and a delayed reading to cut background.

Assay [7] has as its target T5, Voltage-gated N-type calcium channel alpha-1B subunit/Amyloid beta A4 precursor protein-binding family A member 1. Format: protein assay.
Assay [8] shares this target. It is filed as protein assay. The source holds these as a separate data set.
In assay [9] the target is T2, Eukaryotic translation initiation factor 4H. The experiment in a line: eIF4H inhibition in translation initiation, SAR follow-up (AID 435011). It is filed as functional.
In assay [10] the target is T1, Polyadenylate-binding protein 1. As to the kind of experiment: PABP inhibition in translation initiation, SAR follow-up (AID 435018). It is filed as functional.
A short description of assay [11]: A Cell Based Secondary Assay To Explore Cytotoxicity of Compounds that Sensitize Mycobacterium Tuberculosis to Beta-Lactam Antibiotics. It is filed as functional.
The target of assay [12] is T6, Mannose-6-phosphate isomerase (Homo sapiens, UniProt P34949).
T6 sequence (P34949 whole entry): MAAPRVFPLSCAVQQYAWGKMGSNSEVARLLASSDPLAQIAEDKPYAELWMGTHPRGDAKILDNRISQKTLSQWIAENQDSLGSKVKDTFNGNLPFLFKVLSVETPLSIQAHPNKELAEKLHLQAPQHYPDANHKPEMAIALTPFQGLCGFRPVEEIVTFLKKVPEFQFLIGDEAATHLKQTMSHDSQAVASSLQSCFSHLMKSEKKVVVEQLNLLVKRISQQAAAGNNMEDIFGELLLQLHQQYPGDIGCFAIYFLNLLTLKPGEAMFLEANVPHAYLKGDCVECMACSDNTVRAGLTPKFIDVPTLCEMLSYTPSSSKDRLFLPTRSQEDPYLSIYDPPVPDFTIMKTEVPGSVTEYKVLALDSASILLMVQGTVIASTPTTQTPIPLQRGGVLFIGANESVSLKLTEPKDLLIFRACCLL
As to the kind of experiment: inhibitors of human PMI, primary screen, biochemical, fluorescence intensity, coupled assay (AID 1209).

For assay [13], the target named is T7, Heat shock factor protein 1 (Mus musculus, UniProt P38532).
T7 sequence (P38532 whole entry): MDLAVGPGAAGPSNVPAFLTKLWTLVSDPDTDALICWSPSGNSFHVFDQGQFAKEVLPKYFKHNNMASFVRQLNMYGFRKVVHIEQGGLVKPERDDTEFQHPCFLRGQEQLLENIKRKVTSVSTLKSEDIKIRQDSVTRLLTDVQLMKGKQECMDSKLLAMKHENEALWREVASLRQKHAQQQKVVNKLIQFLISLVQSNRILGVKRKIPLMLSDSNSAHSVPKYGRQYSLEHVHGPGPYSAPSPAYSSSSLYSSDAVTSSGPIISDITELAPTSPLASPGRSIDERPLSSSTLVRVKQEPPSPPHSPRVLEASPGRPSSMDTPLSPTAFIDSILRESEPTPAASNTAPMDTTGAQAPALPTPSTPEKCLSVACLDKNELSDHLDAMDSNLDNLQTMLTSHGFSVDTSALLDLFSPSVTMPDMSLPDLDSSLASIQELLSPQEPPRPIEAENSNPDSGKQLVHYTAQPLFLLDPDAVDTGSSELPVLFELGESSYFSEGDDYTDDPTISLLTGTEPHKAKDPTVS
The experiment in a line: HSF1 potentiators in luciferase reporter cells, confirmation, cell-based, NIH3T3, luminescence, dose retest (AID 435004).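 Further: stress induced by proteasome inhibitor MG132 added 30 min after compound; luciferase reporter driven by HSF1 response element in NIH3T3 cells; actives raise luminescence as potentiators of the MG132 stress response.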 Format: functional.

A further assay has as its system HeLa. As to the kind of experiment: HeLa cell cytotoxicity, dose response, cytotoxicity control, 24 h, cherry-picked samples (AID 504726).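 Further: potency for cytotoxicity as loss of luminescence signal.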 The conditions noted are these: Homo sapiens. Format: functional, cell-based.
For assay [14], the target named is Induced myeloid leukemia cell differentiation protein Mcl-1 (Homo sapiens, UniProt Q07820). It is filed as functional.
The target of assay [15] is DNA (cytosine-5)-methyltransferase 1 (Homo sapiens, UniProt P26358). The experiment in a line: DNMT1 methyltransferase inhibitors, confirmation, biochemical, fluorescent molecular beacon (AID 602386). It is filed as functional.
For assay [16], the target named is T3, DNA dC->dU-editing enzyme APOBEC-3G. The experiment in a line: Dose Response confirmation of small molecule APOBEC3G DNA Deaminase Inhibitors via a fluorescence-based single-stranded DNA deaminase assay. [Related pubchem assays (depositor defined):AID493012, AID493028]. It is filed as functional.
Assay [17] addresses Glutathione-S-transferase (Schistosoma japonicum, UniProt Q26513). The experiment in a line: biotin-GST/anti-GST TR-FRET signal inhibitors, dose response, artefact control for Vif-APOBEC3G degradation inhibitor project, biochemical (AID 1117362). It is filed as functional.
For a further assay, the target named is Estrogen receptor beta (Homo sapiens, UniProt Q92731). The experiment in a line: ERβ–SRC-3 coactivator interaction inhibitors, confirmation, orthogonal assay, biochemical, ELISA, streptavidin-HRP readout (AID 1060).
Assay [18] is described as follows: cells. It is filed as functional, cell-based.
Assay [19] is described as follows: cells. It is filed as functional, cell-based. This is another data set of the same source.
Assay [20] can be described thus: inhibitors of SNCA 5'UTR-driven reporter translation, confirmation, H4 neuroglioma cells, luminescence (AID 1988). Format: functional, cell-based.
A short description of assay [21]: cytotoxicity in HEK-293T cells, dose response, cytotoxicity control for TCR NF-kB inhibitor project, luminescence, T-cell screen hits (AID 489026).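 Further: cells exposed to compound about 14 hours before the viability readout.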 It is filed as functional, cell-based.
A short description of assay [22]: inhibitors of SNCA 5'UTR-driven translation, confirmation, luminescence, H4 neuroglioblastoma cells, dose confirmation (AID 2454).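 Further: H4 neuroglioblastoma cells carrying an alpha-synuclein 5'UTR luciferase reporter; potency for inhibition of the luciferase signal.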 Format: functional, cell-based.
The target in assay [23] is T8, Nuclear receptor subfamily 0 group B member 1 (Homo sapiens, UniProt P51843).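 Further: HEK293T cells transfected with SF-1 and DAX-1 plus StAR promoter luciferase reporter.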
T8 sequence (P51843 whole entry): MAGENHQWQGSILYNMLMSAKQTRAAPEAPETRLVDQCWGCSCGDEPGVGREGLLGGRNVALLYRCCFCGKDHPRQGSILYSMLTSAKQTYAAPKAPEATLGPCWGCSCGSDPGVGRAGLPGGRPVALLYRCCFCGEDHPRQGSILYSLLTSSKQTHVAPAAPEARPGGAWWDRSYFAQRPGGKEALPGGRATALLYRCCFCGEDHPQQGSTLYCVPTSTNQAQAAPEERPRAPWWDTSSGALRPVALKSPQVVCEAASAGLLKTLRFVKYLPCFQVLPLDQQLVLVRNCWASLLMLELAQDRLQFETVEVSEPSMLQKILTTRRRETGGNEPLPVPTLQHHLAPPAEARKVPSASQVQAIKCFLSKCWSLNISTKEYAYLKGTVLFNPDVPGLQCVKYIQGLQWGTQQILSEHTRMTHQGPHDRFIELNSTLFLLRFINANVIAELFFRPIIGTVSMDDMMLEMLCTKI
Format: functional, cell-based.

Assay [24] is described as follows: inhibitors of firefly luciferase expression or activity, dose response, H4 neuroglioma cells, luminescence (AID 1990). It is filed as functional, cell-based.
Assay [25] in a line: Luminescence Cell-Based Dose Response HTS to Identify Inhibitors of 5'UTR Stem-Loop Driven Prion Protein mRNA Translation in H4 Neuroglioblastoma Cells. [Related pubchem assays: 1827 (Project Summary), 1813 (Primary HTS)]. Format: functional.
The nature of assay [26]: luciferase reporter signal reduction – luminescence, H4-C neuroglioblastoma cells, dose response (AID 2458).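 Further: H4 neuroglioblastoma cells stably carrying a luciferase reporter gene fusion.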 Format: functional, cell-based. On the technique in general: In a reporter assay the amount or activity of a reporter protein is the signal.
The target of the next assay is Aspartyl aminopeptidase (Plasmodium falciparum 3D7, UniProt Q8I2J3).
For a further assay, the target named is Procathepsin L (Homo sapiens, UniProt P07711).

T3 sequence (Q9HC16 whole entry, the tested form may be a part): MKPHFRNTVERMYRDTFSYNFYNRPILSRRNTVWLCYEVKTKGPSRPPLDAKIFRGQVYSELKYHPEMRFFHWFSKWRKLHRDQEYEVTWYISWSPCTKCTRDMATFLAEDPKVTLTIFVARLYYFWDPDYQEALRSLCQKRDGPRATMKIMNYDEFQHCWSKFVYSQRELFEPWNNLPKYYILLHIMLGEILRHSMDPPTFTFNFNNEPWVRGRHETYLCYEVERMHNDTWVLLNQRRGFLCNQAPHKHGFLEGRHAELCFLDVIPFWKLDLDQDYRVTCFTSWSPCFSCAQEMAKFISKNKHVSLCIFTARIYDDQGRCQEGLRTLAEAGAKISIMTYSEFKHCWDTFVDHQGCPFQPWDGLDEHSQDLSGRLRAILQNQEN
T5 sequence (Q00975 whole entry): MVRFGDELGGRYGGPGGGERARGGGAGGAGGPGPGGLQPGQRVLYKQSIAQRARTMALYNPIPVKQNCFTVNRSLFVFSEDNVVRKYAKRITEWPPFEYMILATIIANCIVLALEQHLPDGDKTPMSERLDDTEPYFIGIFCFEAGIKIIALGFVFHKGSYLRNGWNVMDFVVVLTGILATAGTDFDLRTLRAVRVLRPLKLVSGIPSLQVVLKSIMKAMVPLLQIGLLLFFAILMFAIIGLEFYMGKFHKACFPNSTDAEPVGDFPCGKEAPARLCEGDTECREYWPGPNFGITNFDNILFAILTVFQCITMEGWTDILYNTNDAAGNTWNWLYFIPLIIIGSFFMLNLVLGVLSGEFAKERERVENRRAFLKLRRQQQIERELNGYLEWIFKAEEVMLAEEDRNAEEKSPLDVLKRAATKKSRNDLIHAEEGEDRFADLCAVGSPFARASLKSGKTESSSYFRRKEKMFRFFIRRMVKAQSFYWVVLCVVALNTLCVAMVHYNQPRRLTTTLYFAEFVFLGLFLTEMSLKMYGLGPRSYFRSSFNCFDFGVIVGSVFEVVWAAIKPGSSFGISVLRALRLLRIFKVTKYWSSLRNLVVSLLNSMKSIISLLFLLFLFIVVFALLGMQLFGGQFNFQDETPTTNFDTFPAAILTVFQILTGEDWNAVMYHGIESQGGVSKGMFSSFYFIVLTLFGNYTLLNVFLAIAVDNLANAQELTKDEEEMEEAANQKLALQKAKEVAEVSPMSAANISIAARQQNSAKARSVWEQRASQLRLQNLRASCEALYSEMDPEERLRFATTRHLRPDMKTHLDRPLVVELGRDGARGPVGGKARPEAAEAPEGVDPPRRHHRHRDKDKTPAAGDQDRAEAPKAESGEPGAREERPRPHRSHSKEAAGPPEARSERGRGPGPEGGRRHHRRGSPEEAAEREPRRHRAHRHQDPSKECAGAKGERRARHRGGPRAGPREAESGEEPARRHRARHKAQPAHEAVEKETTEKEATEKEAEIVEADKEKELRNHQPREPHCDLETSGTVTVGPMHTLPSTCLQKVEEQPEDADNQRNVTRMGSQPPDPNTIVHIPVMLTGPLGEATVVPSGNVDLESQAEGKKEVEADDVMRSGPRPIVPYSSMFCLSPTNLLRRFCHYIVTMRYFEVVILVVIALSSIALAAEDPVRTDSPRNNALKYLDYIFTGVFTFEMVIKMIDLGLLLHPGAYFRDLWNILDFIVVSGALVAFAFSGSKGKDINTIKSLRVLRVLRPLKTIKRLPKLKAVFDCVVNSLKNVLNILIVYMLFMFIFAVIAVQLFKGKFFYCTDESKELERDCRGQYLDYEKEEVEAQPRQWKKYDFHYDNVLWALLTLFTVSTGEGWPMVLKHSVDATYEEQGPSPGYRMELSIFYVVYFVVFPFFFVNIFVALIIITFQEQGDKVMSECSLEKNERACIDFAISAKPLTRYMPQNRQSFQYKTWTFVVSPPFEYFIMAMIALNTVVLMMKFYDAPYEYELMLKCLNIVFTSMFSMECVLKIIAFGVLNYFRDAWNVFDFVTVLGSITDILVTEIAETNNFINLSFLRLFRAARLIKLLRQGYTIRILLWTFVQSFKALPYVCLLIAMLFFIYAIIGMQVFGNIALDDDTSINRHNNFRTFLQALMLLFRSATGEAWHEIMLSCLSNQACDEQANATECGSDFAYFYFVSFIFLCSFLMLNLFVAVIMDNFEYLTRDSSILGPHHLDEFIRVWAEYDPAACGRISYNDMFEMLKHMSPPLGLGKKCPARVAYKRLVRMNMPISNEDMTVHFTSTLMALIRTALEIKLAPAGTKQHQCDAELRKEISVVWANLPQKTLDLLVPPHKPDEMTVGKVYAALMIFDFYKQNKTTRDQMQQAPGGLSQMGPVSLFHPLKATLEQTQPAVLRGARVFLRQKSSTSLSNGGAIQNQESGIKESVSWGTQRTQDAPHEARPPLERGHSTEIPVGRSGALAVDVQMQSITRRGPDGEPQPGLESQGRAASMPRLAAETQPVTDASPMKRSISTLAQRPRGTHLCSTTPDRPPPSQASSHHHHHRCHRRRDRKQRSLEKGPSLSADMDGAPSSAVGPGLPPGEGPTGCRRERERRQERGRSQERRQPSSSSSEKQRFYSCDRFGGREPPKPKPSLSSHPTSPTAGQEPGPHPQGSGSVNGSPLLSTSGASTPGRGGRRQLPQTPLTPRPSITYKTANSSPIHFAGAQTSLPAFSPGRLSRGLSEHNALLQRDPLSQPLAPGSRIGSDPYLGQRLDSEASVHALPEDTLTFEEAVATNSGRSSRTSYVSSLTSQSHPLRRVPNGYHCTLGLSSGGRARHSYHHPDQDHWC
T5 sequence (Q02410 whole entry): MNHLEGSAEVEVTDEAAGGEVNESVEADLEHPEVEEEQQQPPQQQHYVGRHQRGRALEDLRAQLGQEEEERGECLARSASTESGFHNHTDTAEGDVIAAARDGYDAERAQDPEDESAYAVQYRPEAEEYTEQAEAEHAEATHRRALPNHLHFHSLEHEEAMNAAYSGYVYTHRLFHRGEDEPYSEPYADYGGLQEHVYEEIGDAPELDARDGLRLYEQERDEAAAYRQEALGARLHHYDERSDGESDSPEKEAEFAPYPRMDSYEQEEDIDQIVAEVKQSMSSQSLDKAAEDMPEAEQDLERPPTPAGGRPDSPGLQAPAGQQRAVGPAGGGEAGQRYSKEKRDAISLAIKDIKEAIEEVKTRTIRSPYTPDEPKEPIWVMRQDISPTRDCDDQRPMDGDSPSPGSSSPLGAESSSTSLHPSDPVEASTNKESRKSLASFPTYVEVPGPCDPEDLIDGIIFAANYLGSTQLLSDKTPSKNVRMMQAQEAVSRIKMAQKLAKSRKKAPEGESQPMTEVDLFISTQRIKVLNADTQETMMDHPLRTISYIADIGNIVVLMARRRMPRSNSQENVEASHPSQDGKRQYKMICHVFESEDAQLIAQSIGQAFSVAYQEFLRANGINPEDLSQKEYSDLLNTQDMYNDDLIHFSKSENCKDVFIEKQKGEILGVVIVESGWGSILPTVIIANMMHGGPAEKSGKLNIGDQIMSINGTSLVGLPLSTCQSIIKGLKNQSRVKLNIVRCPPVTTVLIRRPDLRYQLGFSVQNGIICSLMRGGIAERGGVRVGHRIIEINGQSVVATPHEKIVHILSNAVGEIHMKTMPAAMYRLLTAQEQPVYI
T1 sequence (P11940 whole entry): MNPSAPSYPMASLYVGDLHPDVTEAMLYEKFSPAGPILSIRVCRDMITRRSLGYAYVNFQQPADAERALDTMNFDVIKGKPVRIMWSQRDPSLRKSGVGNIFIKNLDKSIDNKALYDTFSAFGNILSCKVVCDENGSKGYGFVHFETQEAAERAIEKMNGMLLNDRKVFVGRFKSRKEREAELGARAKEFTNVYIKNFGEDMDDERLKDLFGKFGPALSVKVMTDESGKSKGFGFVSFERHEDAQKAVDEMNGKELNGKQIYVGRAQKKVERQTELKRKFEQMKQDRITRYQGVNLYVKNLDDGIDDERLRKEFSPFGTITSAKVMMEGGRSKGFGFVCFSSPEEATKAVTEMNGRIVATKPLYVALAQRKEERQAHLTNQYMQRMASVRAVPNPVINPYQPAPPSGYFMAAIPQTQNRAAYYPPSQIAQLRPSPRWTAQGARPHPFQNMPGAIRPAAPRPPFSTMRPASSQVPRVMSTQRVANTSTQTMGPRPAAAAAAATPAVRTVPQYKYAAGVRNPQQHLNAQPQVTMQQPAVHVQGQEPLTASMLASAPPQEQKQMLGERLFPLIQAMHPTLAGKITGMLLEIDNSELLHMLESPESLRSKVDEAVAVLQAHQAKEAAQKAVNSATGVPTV
Sequence of Glutathione-S-transferase (Q26513 whole entry): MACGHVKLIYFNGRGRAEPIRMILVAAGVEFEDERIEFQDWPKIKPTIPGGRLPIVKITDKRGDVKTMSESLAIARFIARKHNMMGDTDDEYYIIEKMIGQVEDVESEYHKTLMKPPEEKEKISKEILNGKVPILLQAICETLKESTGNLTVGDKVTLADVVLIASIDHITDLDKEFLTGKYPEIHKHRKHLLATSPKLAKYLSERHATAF

One may read the IC50 as the midpoint of a concentration-inhibition curve. For the compound `COc1ccc(C(CC(=O)N2CCCCC2)c2c(OC)cc(OC)c3c(-c4ccccc4)cc(=O)oc23)cc1` (configuration not stated), the IC50 was 10.4 µM (active) in assay [1]; 33.4 µM (active) in assay [2]; 7.25 µM (active) in [3]; 25.9 µM (active) in [4]; 4.7 µM (active) in assay [5].
For the compound `Cc1cccc(C(=O)Nc2ccc(S(=O)(=O)N3CCOCC3)cc2C)c1`, the IC50 in [1] was 4.44 µM (active); in assay [2] it was 11.2 µM (active); in [3] it was > 100 µM (inactive); in [4], 9.37 µM (active).
On to `CCOC(=O)c1sc2nc(-c3ccco3)c3c(c2c1N)CC(C)(C)OC3`, for which the IC50 in assay [6] was > 56.8 µM (inactive); in [7], 5.26 µM (active); in assay [8] it was 9.58 µM (active).
For the compound `Cc1ccc(NC(=O)C2CCCN2C(=O)Oc2ccccc2)cc1` (configuration not stated), the IC50 in assay [9] and in [10] was > 100 µM (inactive) in each case.
As usually defined, the CC50 is the concentration at which the toxic effect on the cells reaches its halfway point. Turning to `CCOC(=O)c1c(C)n(-c2ccccc2)c2ccc(OCCN(C)C)cc12`, the CC50 in assay [11] was > 40 µM (active).
On to `CCC(C)Nc1c2c(nc3c(-c4ccccc4)c(C)nn13)CCC2` (configuration not stated), for which the CC50 in assay [11] was > 40 µM (active).
By EC50 is commonly meant the concentration at which the effect is half-maximal. Consider `Cc1ccc2cccnc2c1NC(=S)NC(=O)c1ccccc1`, for which the IC50 in [12] is given as > 50 µM (not active). Besides, the EC50 in assay [13] is > 260 µM (inactive).
Broadly, the AC50 is the concentration at which the activity in the assay is half-maximal. Regarding `Oc1ccccc1/C=N/c1ccccc1-c1nc2ccccc2[nH]1`, the half-maximal activity concentration (AC50) in the assay on HeLa was 241 µM (active).
For the compound `Oc1cccc2cc3cccc(O)c3c(O)c12`, the IC50 in assay [7] was 38.3 µM (active); in [8] it was 19.9 µM (active); in [14] it was 2.39 µM (active); in assay [15], 1.9 µM (active); in [16] it was 16.9 µM (active).
Consider `O=C(c1ccc2nc(-c3ccco3)c(-c3ccco3)nc2c1)N1CCC2(CC1)OCCO2`, for which the IC50 in [6] was > 56.8 µM (inactive); in assay [17], > 100 µM (active); in [7], 1.39 µM (active); in assay [8] it was 2.45 µM (active); at Estrogen receptor beta, 8.97 µM (not active).
For `CC[C@]1(O)CC2CN(CCc3c([nH]c4ccccc34)[C@@](C(=O)OC)(c3cc4c(cc3OC)N(C=O)[C@H]3[C@@](O)(C(=O)OC)[C@H](OC(C)=O)[C@]5(CC)C=CCN6CC[C@]43[C@@H]65)C2)C1` (some centres not stated) [VINCRISTINE SULFATE], the IC50 in “cells [18]” was > 67.5 µM (inactive); in [21], > 80 µM (inactive); in [23], > 0.278 µM (active). Further, the EC50 in the assay “cells [19]” is 0.063 µM (active); in [20], < 0.1 µM (active); in assay [22] it was 0.055 µM (active); in assay [24], < 0.1 µM (active); in [25], < 0.1 µM (active); in [26], 0.047 µM (active).
As for `Cc1cc(C)n2nc(C(=O)OC(C)C(=O)c3cc(C)c(C)cc3C)nc2n1` (configuration not stated), the AC50 in the assay with HeLa is > 350 µM (inactive).
As for `C=CCn1c(SCc2ccc(Cl)cc2)nc2c1c(=O)[nH]c(=O)n2C`, the EC50 in “cells [19]” was > 12 µM (not active); in [20], > 120 µM (not active); in assay [22], > 12 µM (not active); in assay [24], 29.3 µM (active); in [25], < 0.1 µM (active); in assay [26], > 12 µM (not active).
Turning to `Cc1ccc(Cl)cc1NC(=S)Nn1cnnc1`, the IC50 at Aspartyl aminopeptidase is 2.06 µM (active); at Procathepsin L, > 59.6 µM (not active).
